US20250368666A1, “INDAZOLE COMPOUNDS” (TYRA BIOSCIENCES, INC., priority 2022, published 2025)

How the values were obtained:
[1] = test system: HuH7 cell line (FGF19 amplification); assay: Cancer cell line cell viability assay (Cell Titer-Glo), 120 hr; format: cell-based; details: Homo sapiens, Huh-7
Method in brief: (§1)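 Intracellular ATP was measured by Cell Titer-Glo 2.0 luminescence after cells were incubated with compound dilutions (top 3 μM, 4-fold, 9 doses). Values were expressed relative to DMSO-treated cells and IC50 was calculated from a variable-slope dose-response curve.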

[2] = test system: MDA-MB-453 cell line (FGFR4-Y367C); assay: as above; format: cell-based; details: Homo sapiens
Method in brief: as §1

FGFR3 (V555M) = molecular target: T1, FGFR3 (V555M) (Homo sapiens, UniProt P22607, V555M); assay: Kinase binding assay (kinase-tagged T7 phage, affinity beads, qPCR), Kd; details: V555M mutant; read-out: FGFR3 (V555M) (Kd nM)
T1 construct: made in house; host or cells: E. coli (BL21-derived), T7 phage
Method in brief: (§2)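 Phage-tagged kinase capture on small-molecule affinity resin, compound competition, qPCR quantitation; Kd from Levenberg-Marquardt Hill fit.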

FGFR1 = molecular target: T2, FGFR1 (Homo sapiens, UniProt P11362); assay: as above; details: read-out: FGFR1 (Kd nM)
T2 construct: made in house; host or cells: E. coli (BL21-derived), T7 phage
Method in brief: as §2

FGFR2 = molecular target: T3, FGFR2 (Homo sapiens, UniProt P21802); assay: as above; details: read-out: FGFR2 (Kd nM)
T3 construct: made in house; host or cells: E. coli (BL21-derived), T7 phage
Method in brief: as §2

FGFR4 = molecular target: T4, FGFR4 (Homo sapiens, UniProt P22455); assay: as above; details: read-out: FGFR4 (Kd nM)
T4 construct: made in house; host or cells: E. coli (BL21-derived), T7 phage
Method in brief: as §2

FGFR3 = molecular target: T5, FGFR3 (Homo sapiens, UniProt P22607); assay: as above; details: read-out: FGFR3 (Kd nM)
T5 construct: made in house; host or cells: E. coli (BL21-derived), T7 phage
Method in brief: as §2

[3] = test system: KATO-III cell line (FGFR2 amplification); assay: Cancer cell line cell viability assay (Cell Titer-Glo), 72 hr; format: cell-based; details: Homo sapiens, KATO III
Method in brief: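 Luminescent ATP read-out (Cell Titer-Glo 2.0) after compound exposure, normalised to DMSO-only wells. Dosing: 9 concentrations, 4-fold steps, top 3 μM, triplicates. IC50 derived by log(inhibitor) vs. response 4-parameter fit.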

[4] = test system: RT112/84 cell line (FGFR3-fusion); assay: as above; format: cell-based; details: Homo sapiens, RT112/84, RT112/84 cell line (FGFR3-fusion)
Method in brief: as §1

[5] = test system: KG-1 cell line (FGFR 1-fusion); assay: as above; format: cell-based; details: Homo sapiens, KG-1, KG-1 cell line (FGFR1-fusion)
Method in brief: as §1

T5 sequence (P22607 23-806): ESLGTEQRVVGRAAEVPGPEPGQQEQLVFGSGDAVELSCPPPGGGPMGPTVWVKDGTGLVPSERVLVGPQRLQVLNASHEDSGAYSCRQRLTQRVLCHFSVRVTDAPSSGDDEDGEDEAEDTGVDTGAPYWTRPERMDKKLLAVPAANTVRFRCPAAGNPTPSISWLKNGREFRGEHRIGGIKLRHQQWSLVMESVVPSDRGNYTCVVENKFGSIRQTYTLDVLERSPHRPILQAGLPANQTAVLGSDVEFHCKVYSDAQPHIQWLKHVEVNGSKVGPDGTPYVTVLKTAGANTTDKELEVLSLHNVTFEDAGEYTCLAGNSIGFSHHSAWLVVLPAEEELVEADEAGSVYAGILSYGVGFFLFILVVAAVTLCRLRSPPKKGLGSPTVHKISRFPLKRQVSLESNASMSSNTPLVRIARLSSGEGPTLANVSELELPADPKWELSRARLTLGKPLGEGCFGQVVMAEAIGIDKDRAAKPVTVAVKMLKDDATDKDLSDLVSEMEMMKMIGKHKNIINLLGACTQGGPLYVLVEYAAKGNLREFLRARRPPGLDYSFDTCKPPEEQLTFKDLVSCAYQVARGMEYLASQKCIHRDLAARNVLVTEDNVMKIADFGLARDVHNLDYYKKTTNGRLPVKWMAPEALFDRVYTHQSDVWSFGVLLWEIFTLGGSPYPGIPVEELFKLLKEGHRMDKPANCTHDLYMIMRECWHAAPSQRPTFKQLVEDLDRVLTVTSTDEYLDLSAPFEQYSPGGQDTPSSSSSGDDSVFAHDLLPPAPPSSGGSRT
T3 sequence (P21802 22-821): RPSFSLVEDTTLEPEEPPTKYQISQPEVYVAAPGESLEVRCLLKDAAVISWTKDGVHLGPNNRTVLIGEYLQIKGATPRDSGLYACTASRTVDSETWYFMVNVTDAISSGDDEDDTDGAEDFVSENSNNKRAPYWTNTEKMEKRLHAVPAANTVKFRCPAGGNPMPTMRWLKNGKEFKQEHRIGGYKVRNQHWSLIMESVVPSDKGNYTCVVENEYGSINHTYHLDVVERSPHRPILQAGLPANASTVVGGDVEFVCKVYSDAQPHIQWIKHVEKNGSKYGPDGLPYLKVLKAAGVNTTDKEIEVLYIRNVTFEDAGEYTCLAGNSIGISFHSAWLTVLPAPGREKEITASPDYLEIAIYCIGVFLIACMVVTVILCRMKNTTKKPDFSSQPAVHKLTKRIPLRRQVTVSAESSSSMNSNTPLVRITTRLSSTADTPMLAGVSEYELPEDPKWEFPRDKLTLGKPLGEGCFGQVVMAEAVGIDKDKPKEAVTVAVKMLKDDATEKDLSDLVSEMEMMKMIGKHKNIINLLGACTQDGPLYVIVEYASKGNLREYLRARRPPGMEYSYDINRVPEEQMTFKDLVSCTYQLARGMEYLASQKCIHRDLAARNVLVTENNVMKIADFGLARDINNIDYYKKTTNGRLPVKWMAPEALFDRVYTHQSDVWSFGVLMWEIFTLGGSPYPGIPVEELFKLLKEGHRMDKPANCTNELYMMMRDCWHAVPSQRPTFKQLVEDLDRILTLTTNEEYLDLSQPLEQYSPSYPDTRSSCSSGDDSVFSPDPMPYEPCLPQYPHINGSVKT
T1 sequence (P22607 23-806 V555M): as the sequence (P22607 23-806) above, with V533M counted along it
T2 sequence (P11362 22-822): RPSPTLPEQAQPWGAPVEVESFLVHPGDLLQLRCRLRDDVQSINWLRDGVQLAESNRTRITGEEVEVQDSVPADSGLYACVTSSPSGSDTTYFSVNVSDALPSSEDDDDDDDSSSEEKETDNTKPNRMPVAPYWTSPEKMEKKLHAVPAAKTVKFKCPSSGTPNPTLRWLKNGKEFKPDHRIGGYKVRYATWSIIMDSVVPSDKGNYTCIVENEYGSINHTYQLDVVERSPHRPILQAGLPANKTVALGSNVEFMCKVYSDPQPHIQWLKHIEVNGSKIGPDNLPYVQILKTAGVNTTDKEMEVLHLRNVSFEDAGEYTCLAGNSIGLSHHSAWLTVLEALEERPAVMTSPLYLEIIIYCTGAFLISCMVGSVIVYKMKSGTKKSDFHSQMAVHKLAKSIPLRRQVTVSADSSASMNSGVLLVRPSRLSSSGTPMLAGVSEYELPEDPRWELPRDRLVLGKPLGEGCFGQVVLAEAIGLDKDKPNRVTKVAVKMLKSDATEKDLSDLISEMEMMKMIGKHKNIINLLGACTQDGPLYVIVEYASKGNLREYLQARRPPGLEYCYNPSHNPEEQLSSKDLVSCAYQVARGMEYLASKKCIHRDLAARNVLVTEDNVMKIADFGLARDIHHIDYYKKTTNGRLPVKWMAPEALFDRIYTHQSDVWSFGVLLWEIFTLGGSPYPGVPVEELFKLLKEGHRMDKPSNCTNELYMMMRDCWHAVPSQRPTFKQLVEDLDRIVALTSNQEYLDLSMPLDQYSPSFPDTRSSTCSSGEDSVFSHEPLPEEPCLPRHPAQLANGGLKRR
T4 sequence (P22455 22-802): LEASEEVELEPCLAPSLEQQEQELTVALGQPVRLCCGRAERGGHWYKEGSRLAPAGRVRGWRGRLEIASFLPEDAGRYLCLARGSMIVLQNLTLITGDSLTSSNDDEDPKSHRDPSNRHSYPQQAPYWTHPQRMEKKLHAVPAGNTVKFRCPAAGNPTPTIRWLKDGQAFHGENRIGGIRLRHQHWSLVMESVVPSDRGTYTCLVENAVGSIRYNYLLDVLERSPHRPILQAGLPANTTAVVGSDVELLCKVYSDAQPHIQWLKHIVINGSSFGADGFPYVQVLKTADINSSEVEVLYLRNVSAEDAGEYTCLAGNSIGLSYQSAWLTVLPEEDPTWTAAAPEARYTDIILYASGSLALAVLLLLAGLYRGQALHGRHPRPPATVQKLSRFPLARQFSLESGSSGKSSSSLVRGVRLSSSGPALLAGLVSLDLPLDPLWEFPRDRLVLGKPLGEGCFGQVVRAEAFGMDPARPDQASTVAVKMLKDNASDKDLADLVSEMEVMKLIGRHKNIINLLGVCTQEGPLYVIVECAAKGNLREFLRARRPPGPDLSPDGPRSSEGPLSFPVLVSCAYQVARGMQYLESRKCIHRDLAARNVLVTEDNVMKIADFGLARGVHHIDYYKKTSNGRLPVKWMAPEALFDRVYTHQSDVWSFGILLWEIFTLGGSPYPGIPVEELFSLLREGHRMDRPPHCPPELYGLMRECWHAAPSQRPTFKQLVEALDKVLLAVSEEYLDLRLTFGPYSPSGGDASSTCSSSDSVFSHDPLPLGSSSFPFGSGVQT

Row | SMILES | IC50 [1] | IC50 [2] | Kd (FGFR3 (V555M)) | Kd (FGFR1) | Kd (FGFR2) | Kd (FGFR4) | Kd (FGFR3) | IC50 [3] | IC50 [4] | IC50 [5]
1 | C[C@@H](Oc1ccc2[nH]nc(-c3cnc(N4CC(C)(CP(C)(C)=O)C4)c(C#N)c3)c2c1)c1c(Cl)cncc1Cl [Example 6, (R)-5-(5-(1-(3,5-dichloropyridin-4-yl)ethoxy)-1H-indazol-3-yl)-2-(3-((dimethylphosphoryl)methyl)-3-methylazetidin-1-yl)nicotinonitrile] | 0.1 to 50 nM | 0.1 to 50 nM | 1 to 50 nM | 50 to 300 nM | 1 to 50 nM | 1 to 50 nM | 1 to 50 nM | 50 to 200 nM | 50 to 200 nM | > 1000 nM
2 | COc1cc2[nH]nc(-c3cnc(N4CC(C)(NC(C)C)C4)c(C#N)c3)c2cc1O[C@H](C)c1c(Cl)cncc1Cl [Example 8, (R)-5-(5-(1-(3,5-Dichloropyridin-4-yl)ethoxy)-6-methoxy-1H-indazol-3-yl)-2-(3-(isopropylamino)-3-methylazetidin-1-yl)nicotinonitrile] | 0.1 to 50 nM | 0.1 to 50 nM | 1 to 50 nM | 1 to 50 nM | 1 to 50 nM | 1 to 50 nM | 1 to 50 nM | 50 to 200 nM | 0.1 to 50 nM | 50 to 200 nM
3 | CNC1(C)CN(c2ncc(-c3n[nH]c4cc(OC)c(O[C@H](C)c5c(Cl)cncc5Cl)cc34)cc2C#N)C1 [Example 9, 5-[5-[(1R)-1-(3,5-dichloro-4-pyridyl)ethoxy]-6-methoxy-1H-indazol-3-yl]-2-[3-methyl-3-(methylamino)azetidin-1-yl]pyridine-3-carbonitrile] | 0.1 to 50 nM | 0.1 to 50 nM | 1 to 50 nM | 1 to 50 nM | 1 to 50 nM | 1 to 50 nM | 1 to 50 nM | 50 to 200 nM | 0.1 to 50 nM | 0.1 to 50 nM
4 | COc1cc2[nH]nc(-c3cnc(N4CC(C)(NCC5CC5)C4)c(C#N)c3)c2cc1O[C@H](C)c1c(Cl)cncc1Cl [Example 14, 2-[3-(cyclopropylmethylamino)-3-methyl-azetidin-1-yl]-5-[5-[(1R)-1-(3,5-dichloro-4-pyridyl)ethoxy]-6-methoxy-1H-indazol-3-yl]pyridine-3-carbonitrile] | 0.1 to 50 nM | 0.1 to 50 nM | 1 to 50 nM | 1 to 50 nM | 1 to 50 nM | 1 to 50 nM | 1 to 50 nM | 50 to 200 nM | 0.1 to 50 nM | 50 to 200 nM
5 | COc1cc2[nH]nc(-c3cnc(N4CC(C)(N5CCOCC5)C4)c(C#N)c3)c2cc1O[C@H](C)c1c(Cl)cncc1Cl [Example 16, (R)-5-(5-(1-(3,5-dichloropyridin-4-yl)ethoxy)-6-methoxy-1H-indazol-3-yl)-2-(3-methyl-3-morpholinoazetidin-1-yl)nicotinonitrile] | 0.1 to 50 nM | 0.1 to 50 nM | 1 to 50 nM | 1 to 50 nM | 1 to 50 nM | 1 to 50 nM | 1 to 50 nM | 50 to 200 nM | 0.1 to 50 nM | 50 to 200 nM
6 | COc1cc2[nH]nc(-c3cnc(N4CC(C)(CP(C)(C)=O)C4)c(C#N)c3)c2cc1O[C@H](C)c1c(Cl)cncc1Cl [Example 53, (R)-5-(5-(1-(3,5-Dichloropyridin-4-yl)ethoxy)-6-methoxy-1H-indazol-3-yl)-2-(3-((dimethylphosphoryl)methyl)-3-methylazetidin-1-yl)nicotinonitrile] | 0.1 to 50 nM | 0.1 to 50 nM | 1 to 50 nM | 1 to 50 nM | 1 to 50 nM | 1 to 50 nM | 1 to 50 nM | 50 to 200 nM | 50 to 200 nM | 200 to 1000 nM
7 | COc1cc2[nH]nc(-c3cnc(N4CC(C)(NCC(C)(C)O)C4)c(C#N)c3)c2cc1O[C@H](C)c1c(Cl)cncc1Cl [Example 55, (R)-5-(5-(1-(3,5-dichloropyridin-4-yl)ethoxy)-6-methoxy-1H-indazol-3-yl)-2-(3-((2-hydroxy-2-methylpropyl)amino)-3-methylazetidin-1-yl)nicotinonitrile] | 0.1 to 50 nM | 0.1 to 50 nM | 1 to 50 nM | 1 to 50 nM | 1 to 50 nM | 1 to 50 nM | 1 to 50 nM | 50 to 200 nM | 0.1 to 50 nM | 50 to 200 nM

Continued, values first:

Row | IC50 [1] | IC50 [2] | Kd (FGFR3 (V555M)) | Kd (FGFR1) | Kd (FGFR2) | Kd (FGFR4) | Kd (FGFR3) | IC50 [3] | IC50 [4] | IC50 [5] | SMILES
8 | 0.1 to 50 nM | 0.1 to 50 nM | 1 to 50 nM | 1 to 50 nM | 1 to 50 nM | 1 to 50 nM | 1 to 50 nM | 0.1 to 50 nM | 0.1 to 50 nM | 50 to 200 nM | C[C@@H](Oc1ccc2[nH]nc(-c3cnc(N4CC(C)(N5CCOCC5)C4)c(F)c3)c2c1)c1c(Cl)cncc1Cl [Example 80, (R)-4-(1-(5-(5-(1-(3,5-Dichloropyridin-4-yl)ethoxy)-1H-indazol-3-yl)-3-fluoropyridin-2-yl)-3-methylazetidin-3-yl)morpholine]
9 | 0.1 to 50 nM | 0.1 to 50 nM | 1 to 50 nM | 1 to 50 nM | 1 to 50 nM | 1 to 50 nM | 1 to 50 nM | 50 to 200 nM | 0.1 to 50 nM | 50 to 200 nM | C[C@@H](Oc1ccc2[nH]nc(-c3cnc(N4CC(C)(N(C)C)C4)c(F)c3)c2c1)c1c(Cl)cncc1Cl [Example 81, (R)-1-(5-(5-(1-(3,5-dichloropyridin-4-yl)ethoxy)-1H-indazol-3-yl)-3-fluoropyridin-2-yl)-N,N,3-trimethylazetidin-3-amine]
10 | 0.1 to 50 nM | 50 to 200 nM | 1 to 50 nM | 1 to 50 nM | 1 to 50 nM | 1 to 50 nM | 1 to 50 nM | 50 to 200 nM | 0.1 to 50 nM | 50 to 200 nM | CC[C@@H](C)NC1(C)CN(c2ncc(-c3n[nH]c4ccc(O[C@H](C)c5c(Cl)cncc5Cl)cc34)cc2F)C1 [Example 140, 1-[5-[5-[(1R)-1-(3,5-dichloro-4-pyridyl)ethoxy]-1H-indazol-3-yl]-3-fluoro-2-pyridyl]-3-methyl-N-[(1R)-1-methylpropyl]azetidin-3-amine]
11 | 0.1 to 50 nM | 50 to 200 nM | 1 to 50 nM | 1 to 50 nM | 1 to 50 nM | 1 to 50 nM | 1 to 50 nM | 50 to 200 nM | 0.1 to 50 nM | 50 to 200 nM | CC[C@H](C)NC1(C)CN(c2ncc(-c3n[nH]c4ccc(O[C@H](C)c5c(Cl)cncc5Cl)cc34)cc2F)C1 [Example 141, 1-[5-[5-[(1R)-1-(3,5-dichloro-4-pyridyl)ethoxy]-1H-indazol-3-y1]-3-fluoro-2-pyridyl]-3-methyl-N-[(1S)-1-methylpropyl]azetidin-3-amine]
12 | 0.1 to 50 nM | 50 to 200 nM | – | 1 to 50 nM | – | – | 1 to 50 nM | 50 to 200 nM | 0.1 to 50 nM | 50 to 200 nM | C[C@@H](Oc1ccc2[nH]nc(-c3cnc(N4CC(CC#N)(NCC5CC5)C4)c(F)c3)c2c1)c1c(Cl)cncc1Cl [Example 151, 2-[3-(Cyclopropylmethyl-amino)-1-[5-[5-[(1R)-1-(3,5-dichloro-4-pyridyl)ethoxy]-1H-indazol-3-yl]-3-fluoro-2-pyridyl]azetidin-3-yl]acetonitrile]
13 | 0.1 to 50 nM | 0.1 to 50 nM | – | 1 to 50 nM | 1 to 50 nM | 1 to 50 nM | 1 to 50 nM | 0.1 to 50 nM | 0.1 to 50 nM | 50 to 200 nM | COc1cc2[nH]nc(-c3cnc(N4CC[C@](C)(N)C4)c(C#N)c3)c2cc1O[C@H](C)c1c(Cl)cncc1Cl [Example 367, 2-((S)-3-amino-3-methylpyrrolidin-1-yl)-5-(5-((R)-1-(3,5-dichloropyridin-4-yl)ethoxy)-6-methoxy-1H-indazol-3-yl)nicotinonitrile]
14 | 0.1 to 50 nM | 0.1 to 50 nM | – | 1 to 50 nM | 1 to 50 nM | 1 to 50 nM | 1 to 50 nM | 0.1 to 50 nM | 0.1 to 50 nM | 50 to 200 nM | COc1cc2[nH]nc(-c3cnc(N4CC[C@@](C)(N)C4)c(C#N)c3)c2cc1O[C@H](C)c1c(Cl)cncc1Cl [Example 369, 2-((R)-3-amino-3-methylpyrrolidin-1-yl)-5-(5-((R)-1-(3,5-dichloropyridin-4-yl)ethoxy)-6-methoxy-1H-indazol-3-yl)nicotinonitrile]
